Biological target: T1, human PPARα (Homo sapiens, UniProt Q07869)
T1 construct: expressed in transfected cells; host or cells: HEK cells (human embryo kidney), stably transfected with pcDNA3-GR-GAL4-humanPPARα and the luciferase reporter pdeltaMG4LZ
T1 sequence (Q07869 167-468): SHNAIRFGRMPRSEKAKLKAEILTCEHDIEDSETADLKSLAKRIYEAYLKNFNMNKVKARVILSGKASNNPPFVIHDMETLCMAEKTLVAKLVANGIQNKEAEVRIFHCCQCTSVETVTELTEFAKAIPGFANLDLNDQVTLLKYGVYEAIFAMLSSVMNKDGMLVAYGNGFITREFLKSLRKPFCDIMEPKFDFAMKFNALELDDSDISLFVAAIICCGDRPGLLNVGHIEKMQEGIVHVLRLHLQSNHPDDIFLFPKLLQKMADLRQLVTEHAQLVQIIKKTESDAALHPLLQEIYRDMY
Assay: PPARα reporter cell line assay (stably transfected HEK cells, GR-GAL4-PPARα fusion protein, firefly luciferase reporter)
Type: cell-based
Conditions: agonist activity in HEK PPARα reporter cell line; 24 h incubation; luciferase luminescence
Description: To analyze the effectiveness of substances which bind to human PPARα, activating it in agonistic manner, a stable transfected HEK cell line (HEK=human embryo kidney) designated here as “PPARα reporter cell line” is used. It contains two genetic elements, a firefly luciferase reporter element and a PPARα fusion protein (GR-GAL4-PPARα) which controls the expression of the firefly luciferase reporter element in a PPARα ligand dependent way.
The PPARα reporter cell line was established in two steps: First, the firefly luciferase reporter element was constructed and stably transfected into HEK cells. Five DNA binding sites for the yeast transcription factor GAL4 (five repetitions of the sequence 5′-CGGAGTACTGTCCTCCGAG-3′) (SEQ ID NO:1) were cloned 5′ upstream of a 68 bp minimal RNA polymerase II promoter from the GR mouse mammary tumor virus long terminal repeat (accession # V01175) providing a CCAAT-box as well as a TATA-element. Cloning and sequencing was done as described by Sambrook J. et. al. (Molecular cloning, Cold Spring Harbor Laboratory Press, 1989). The complete Photinus pyralis luciferase gene (accession # M 15077) was cloned 3′ downstream of the GAL4 binding sites and the MMTV minimal promoter. The firefly luciferase reporter element consisting of 5 GAL4 binding sites, the MMTV minimal promoter and the full length luciferase gene was recloned into a plasmid backbone harboring a Zeozin resistence gene leading to plasmid “pdeltaMG4LZ”. This vector was transfected in HEK cells as described by Ausubel, F. M. et al. (Current protocols in molecular biology, Vol. 1-3, John Wiley & Sons, Inc., 1995). Stable clones have been selected using Zeozin as a selection agent (0.5 mg/ml).
In a second step, the PPARα fusion protein (GR-GAL4-PPARα) that controls expression of the firefly luciferase reporter element, was stably integrated in this cell background. For this purpose the cDNAs coding for the N-terminal 76 amino acids of the human glucocorticoid receptor (“GR”, accession # P04150) have been linked to amino acids 1-147 of the yeast GAL4-protein (accession # P04386) followed by the ligand binding domain of humanPPARα (amino acids S167-Y468, accession # S74349). The GR-GAL4-human PPARα construct was cloned into plasmid pcDNA3 (Invitrogen) were its expression is driven constitutively by the Cytomegalovirus promoter. The plasmid pcDNA3-GR-GAL4-humanPPARα was transfected in a stable HEK-cell clone that already contained the firefly luciferase reporter element described above. A double-transfected cell line containing both, the firefly luciferase reporter element as well as the GR-GAL4-humanPPARα fusion protein, has been selected on medium supplemented with Zeozin (0.5 mg/ml) and G418 (0.5 mg/ml).
The activity of PPARα agonists is determined in a three day test, described below:
The PPARα reporter cell line is cultivated up to 80% confluence in DMEM medium (# 41965-039, Life Technologies) with the following additives: 10% cs-FCS (fetal calf serum, #SH-30068.03, Hyclone), antibiotics (0.5 mg/ml of zeozin [#R250-01, Invitrogen], 0.5 mg/ml of G418 [#10131-019, Life Technologies], 1% penicillin streptomycin solution [#15140-031, Life Technologies]) and 2 mM of L-glutamine (#25030-032, Life Technologies). Cultivation is carried out in standard cell culture bottles (# 33111, Becton Dickinson) in a cell culture incubator at 37° C. and 5% CO2. The 80% confluent cells are washed once with 30 ml of PBS (#14190-094, Life Technologies), treated with 2 ml of trypsin solution (#25300-054, Life Technologies) at 37° C. for 2 min, taken up in 5 ml of the medium described above and counted in a cell counter. After dilution to 500,000 cells/ml, in each case 35,000 cells are sown into each well of a 96-well microtiter plate having a clear plastic bottom (#3610, Coming Costar). The plates are incubated in a cell incubator at 37° C. and 5% CO2 for 24 h.
The PPARα agonists to be tested are dissolved in DMSO at a concentration of 10 mM. […]

Compound | EC50 [pM]
COc1cccc(-c2nc(CO[C@H]3CCC[C@@H](OCc4cccc(C)c4C(=O)O)C3)c(C)o2)c1 [IL, 2-{1R,3S-3-[2-(3-Methoxy-phenyl)-5-methyl-oxazol-4-ylmethoxy]-cyclohexyloxymethy}-6-methylbenzoic acid] | 520
Cc1ccccc1-c1nc(CO[C@H]2CCC[C@@H](OCc3cccc(C)c3C(=O)O)C2)c(C)o1 [LVI, 2-{1R,3S-3-[2-(2-Methylphenyl)-5-methyloxazol-4-ylmethoxy]cyclohexyloxymethyl}-6-methylbenzoic acid] | 540
Cc1cccc(CO[C@@H]2CCC[C@H](OCc3nc(-c4cccc(Br)c4)oc3C)C2)c1C(=O)O [LXVI, 2-{1R,3S-3-[2-(3-Bromophenyl)-5-methyloxazol-4-ylmethoxy]cyclohexyloxymethyl}-6-methylbenzoic acid] | 480
2-{3-[2-(4-Fluorophenyl)oxazol-4-ylmethoxy]cyclohexyloxy}-6-methylbenzoic acid [Example I] | 1000
Cc1cccc(CC[C@H]2CCC[C@H](OCc3coc(-c4ccc(F)cc4)n3)C2)c1C(=O)O (racemic) [XXIX, rac-trans-2-(2-{3-[2-(4-Fluorophenyl)oxazol-4-ylmethoxy]cyclohexyl}ethyl)-6-methylbenzoic acid] | 1400
Cc1cccc(COC[C@@H]2CCC[C@H](OCc3coc(-c4ccc(F)cc4)n3)C2)c1C(=O)O (racemic) [XXV, rac-cis-2-{3-[2-(4-Fluorophenyl)oxazol-4-ylmethoxy]cyclohexylmethoxymethyl}-6-methylbenzoic acid] | 1300

Stronger by EC50, values ahead:

EC50 [pM] | Compound
110 | Cc1cccc(CO[C@@H]2CCC[C@H](OCc3nc(-c4ccc(C(C)C)cc4)oc3C)C2)c1C(=O)O [Example LXIX, 2-Methyl-6-[(1R,3S)-3-(5-methyl-2-(4-(2-propyl)-phenyl)-oxazol-4-ylmethoxy)-cyclohexyloxymethyl]-benzoic acid]
280 | Cc1cccc(CO[C@@H]2CCC[C@H](OCc3nc(-c4ccc(OC(F)(F)F)cc4)oc3C)C2)c1C(=O)O [LXX, 2-methyl-6-[(1R,3S)-3-(5-methyl-2-(4-trifluoromethoxyphenyl)-oxazol-4-ylmethoxy)-cyclohexyloxymethyl]-benzoic acid]
40 | Cc1cccc(CO[C@@H]2CCC[C@H](OCc3nc(-c4ccc(F)cc4)oc3C)C2)c1C(=O)O (stereo in doubt) [IX, cis-2-(3-[2-(4-Fluorophenyl)-5-methyloxazol-4-ylmethoxy]cyclohexyloxymethyl}-6-methylbenzoic acid]
190 | Cc1cccc(CO[C@@H]2CCC[C@H](OCc3nc(-c4cccc(C(F)(F)F)c4)oc3C)C2)c1C(=O)O [Example L, 2-{1R,3S-3-[2-(3-Trifluoromethylphenyl)-5-methyloxazol-4-ylmethoxy]cyclohexyloxymethyl}-6-methylbenzoic acid]
130 | Cc1cccc(CO[C@@H]2CCC[C@H](OCc3nc(-c4cccc(OC(F)(F)F)c4)oc3C)C2)c1C(=O)O [LVII, 2-{1R,3S-3-[2-(3-Trifluoromethoxyphenyl)-5-methyloxazol-4-ylmethoxy]cyclohexyloxymethyl}-6-methylbenzoic acid]

Reference: patent US7399777B2, “Diarylcycloalkyl derivatives, processes for their preparation and their use as pharmceuticals” (Sanofi-Aventis Deutschland GmbH, priority 2001, dated 2008)
